# Read-outs that look alike come from different tables or passages of the source.
# Tests used:
# [1] = test system: mono-methyl arginine in RKO cells; assay: RKO methylation assay, In Cell Western for mono-methyl arginine and DNA content; format: cell-based; conditions: Homo sapiens
# Full-length human PRMT6 = target: T1, Full-length human PRMT6 (Homo sapiens, UniProt Q96LA8); assay: PRMT6 biochemical assay (3H-SAM Flashplate, peptide substrate)
# T1 construct: Flag-PRMT6-His was eluted with 200 ug/ml FLAG peptide in the same buffer; made in house; host or cells: HEK 293F cells (BacMam virus, pFastBacMam)
# T1 sequence (Q96LA8 with tags, fused parts or gaps): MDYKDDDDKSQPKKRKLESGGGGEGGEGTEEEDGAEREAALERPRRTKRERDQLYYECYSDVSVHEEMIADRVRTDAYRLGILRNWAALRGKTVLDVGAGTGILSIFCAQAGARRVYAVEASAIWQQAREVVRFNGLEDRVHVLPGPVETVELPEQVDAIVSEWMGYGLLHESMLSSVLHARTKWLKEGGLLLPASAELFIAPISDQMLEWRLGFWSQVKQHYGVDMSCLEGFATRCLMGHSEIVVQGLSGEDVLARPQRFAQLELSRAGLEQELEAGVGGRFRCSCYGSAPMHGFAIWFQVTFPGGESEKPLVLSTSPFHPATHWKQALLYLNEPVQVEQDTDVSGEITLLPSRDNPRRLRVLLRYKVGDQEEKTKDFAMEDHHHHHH
# Procedure, shortened: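 Flag-PRMT6-His from baculovirus-infected cells, preincubated with compound 30 min at room temperature, then SAM/3H-SAM and biotinylated H4 36-50 peptide added; 20 mM Bicine pH 7.6, TCEP, BSG, Tween 20. Quenched with cold SAM, captured on streptavidin Flashplates; % inhibition from SAH/DMSO controls, 3- or 4-parameter IC50 fit.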
# [2] = In Cell Western, RKO cells, 72 hours, percent activation of mono-methyl arginine signal, read-out: EC30
Compound,"EC30 [1, 2] [nM]",IC50 (Full-length human PRMT6) [nM],"EC30 ([1]; RKO, 72 h) [nM]"
CNCCN(C)Cc1cn(C2CC2)nc1-c1ccc(F)cc1 [Compound 13],> 12000,101 to 1000,–
CNCCN(C)Cc1cnn(C2CC2)c1-c1ccc(F)cc1 [Compound 14],3010 to 12000,< 100,–
CNCCN(C)Cc1cn(C(C)C)nc1-c1ccc(F)cc1 [Compound 15],> 12000,101 to 1000,–
CNCCN(C)Cc1cnn(C(C)C)c1-c1ccc(F)cc1 [Compound 16],–,< 100,> 12000
CNCCN(C)Cc1cn[nH]c1-c1ccc(C#N)cc1 [Compound 17],–,< 100,> 12000
CNCCN(C)Cc1cn[nH]c1-c1cc(F)cc(F)c1 [Compound 18],> 12000,< 100,–
CCCc1ccc(-c2n[nH]cc2CN(C)CCNC)cc1 [Compound 20],< 3000,< 100,–
CNCCN(C)Cc1c[nH]nc1-c1cccc([N+](=O)[O-])c1 [Compound 21],> 12000,< 100,–
CNCCN(C)Cc1c[nH]nc1-c1cccc(C#N)c1 [Compound 22],> 12000,< 100,–
CNCCN(C)Cc1c[nH]nc1-c1ccccc1OC [Compound 23],> 12000,101 to 1000,–
CNCCN(C)Cc1c[nH]nc1-c1cccc(OC)c1 [Compound 24],> 12000,< 100,–
CNCCN(C)Cc1c[nH]nc1-c1ccc(OC)cc1 [Compound 25],> 12000,< 100,–
CNCCN(C)Cc1c[nH]nc1-c1cccc(O)c1 [Compound 26],> 12000,< 100,–
CNCCN(C)Cc1c[nH]nc1-c1ccc(O)cc1 [Compound 27],> 12000,< 100,–
CNCCN(C)Cc1c[nH]nc1-c1ccc(CO)cc1 [Compound 28],3010 to 12000,< 100,–
CNCCN(C)Cc1c[nH]nc1-c1ccc(C)cc1C [Compound 29],> 12000,< 100,–
CNCCN(C)Cc1cn(CCCC(O)CO)nc1-c1ccc(F)cc1 (stereo not shown) [Compound 30],> 12000,101 to 1000,–
CNCCN(C)Cc1cnn(CCCC(O)CO)c1-c1ccc(F)cc1 (stereo not shown) [Compound 31],> 12000,101 to 1000,–
CNCCN(C)Cc1c[nH]nc1-c1ccc(N)cc1 [Compound 33],> 12000,< 100,–
CNCCN(C)Cc1c[nH]nc1-c1ccc(Oc2ccccc2)cc1 [Compound 37],< 3000,< 100,–
CNCCN(C)Cc1c[nH]nc1-c1ccccc1C(F)(F)F [Compound 38],> 12000,101 to 1000,–
CNCCN(C)Cc1c[nH]nc1-c1ccccc1OC(F)(F)F [Compound 40],> 12000,101 to 1000,–
CCNC(=O)c1cccc(-c2n[nH]cc2CN(C)CCNC)c1 [Compound 43],> 12000,< 100,–
CNCCN(C)Cc1c[nH]nc1-c1ccc(C(F)(F)F)cc1 [Compound 174],< 3000,< 100,–

Compound,"EC30 [1, 2] [nM]",IC50 (Full-length human PRMT6) [nM],"EC30 ([1]; RKO, 72 h) [nM]"
CC(C)CC(=O)N1CCN(c2ccc(-c3n[nH]cc3CN(C)CCN)cc2)CC1 [Compound 180],> 12000,< 100,–
CNCCN(C)Cc1c[nH]nc1-c1ccc(Cl)c(F)c1 [Compound 182],< 3000,< 100,–
CN(CCNC1CC1)Cc1c[nH]nc1-c1ccc(C#N)cc1 [Compound 183],> 12000,101 to 1000,–
CN(CCN(C)C1CC1)Cc1c[nH]nc1-c1ccc(C#N)cc1 [Compound 184],< 3000,1010 to 3000,–
CN(CCN1CCC1)Cc1c[nH]nc1-c1ccc(C#N)cc1 [Compound 185],> 12000,101 to 1000,–
CC(C)Oc1cccc(-c2n[nH]cc2CN(C)CCN)c1 [Compound 187],3010 to 12000,< 100,–
CC(C)Oc1cc(-c2n[nH]cc2CN(C)CCN)ccc1F [Compound 188],> 12000,< 100,–
CCC(=O)N1CCN(c2ccc(-c3n[nH]cc3CN(C)CCN)cc2)CC1 [Compound 189],> 12000,< 100,–
CC(C)CN1C(=O)COc2ccc(-c3n[nH]cc3CN(C)CCN)cc21 [Compound 191],> 12000,101 to 1000,–
CN(CCN)Cc1c[nH]nc1-c1ccc2c(c1)OCC(=O)N2C [Compound 192],> 12000,< 100,–
CC(C)CN1C(=O)COc2cc(-c3n[nH]cc3CN(C)CCN)ccc21 [Compound 193],3010 to 12000,101 to 1000,–
CN(CCN)Cc1c[nH]nc1-c1ccc(OCCO)cc1 [Compound 194],> 12000,< 100,–
CN(CCN)Cc1c[nH]nc1-c1ccc(OCCCO)cc1 [Compound 195],3010 to 12000,< 100,–
CN(CCN)Cc1c[nH]nc1-c1ccc2c(c1)N(C)C(=O)CO2 [Compound 196],> 12000,< 100,–
CCNC(=O)c1cccc(-c2n[nH]cc2CN(C)CCN)c1 [Compound 197],> 12000,< 100,–
CCN(C)C(=O)c1cccc(-c2n[nH]cc2CN(C)CCN)c1 [Compound 198],> 12000,101 to 1000,–
"Cc1cc(-c2n[nH]cc2CN(C)CCN)cc(C)c1OC(C)C [Compound 199, N^1-((3-(4-isopropoxy-3,5-dimethylphenyl)-1H-pyrazol-4-yl)methyl)-N^1-methylethane-1,2-diamine]",< 3000,101 to 1000,–
CN(CCN)Cc1c[nH]nc1-c1ccc(Oc2ccccc2)c(C#N)c1 [Compound 202],< 3000,< 100,–
CN(CCN)Cc1n[nH]cc1-c1ccc(Oc2ccccc2)cc1 [Compound 203],< 3000,< 100,–
CNCCN(C)Cc1n[nH]cc1-c1ccc(Oc2ccccc2)cc1 [Compound 204],< 3000,< 100,–
CN(CCN)Cc1c[nH]nc1-c1ccc(Oc2cccc(F)c2)cc1 [Compound 205],< 3000,< 100,–
CNCCN(C)Cc1cn(C)nc1-c1ccc(OC(C)C)c(Cl)c1 [Compound 206],–,< 100,< 3000
CNCCN(C)Cc1cn(C)nc1-c1ccc(Oc2ccccc2)cc1 [Compound 207],< 3000,< 100,–
CNCCN(C)Cc1cnn(C)c1-c1ccc(Oc2ccccc2)cc1 [Compound 208],< 3000,< 100,–

Compound,"EC30 [1, 2] [nM]",IC50 (Full-length human PRMT6) [nM],"EC30 ([1]; RKO, 72 h) [nM]"
CNCCN(C)Cc1c[nH]nc1-c1ccc(OCCCOC)cc1 [Compound 209],< 3000,< 100,–
CNCCN(C)Cc1n[nH]cc1-c1ccc(OC(C)C)c(F)c1 [Compound 210],< 3000,< 100,–
CC(C)Oc1ccc(-c2c[nH]nc2CN(C)CCN)cc1Cl [Compound 211],< 3000,< 100,–
CNCCN(C)Cc1n[nH]cc1-c1ccc(OC(C)C)c(Cl)c1 [Compound 212],< 3000,< 100,–
CCn1cc(CN(C)CCNC)c(-c2ccc(OC(C)C)cc2)n1 [Compound 213],> 12000,< 100,–
CNCCN(C)Cc1cn(C2CCCC2)nc1-c1ccc(OC(C)C)cc1 [Compound 214],> 12000,101 to 1000,–
CNCCN(C)Cc1cn(C2CCOC2)nc1-c1ccc(OC(C)C)cc1 (stereo not shown) [Compound 215],> 12000,101 to 1000,–
CNCCN(C)Cc1cnn(C2CCOC2)c1-c1ccc(OC(C)C)cc1 (stereo not shown) [Compound 216],> 12000,< 100,–
CNCCN(C)Cc1cn(Cc2ccccc2)nc1-c1ccc(OC(C)C)cc1 [Compound 217],> 12000,< 100,–
C=CCn1cc(CN(C)CCNC)c(-c2ccc(OC(C)C)cc2)n1 [Compound 218],> 12000,101 to 1000,–
C=CCn1ncc(CN(C)CCNC)c1-c1ccc(OC(C)C)cc1 [Compound 219],> 12000,< 100,–
CNCCN(C)Cc1c[nH]nc1-c1ccc(Oc2ccccc2)c(C#N)c1 [Compound 221],< 3000,< 100,–
CN(CCN)Cc1c(-c2ccc(C#N)cc2)ncn1C [Compound 222],> 12000,1010 to 3000,–
"CN(CCN)Cc1c[nH]nc1-c1ccc(Oc2ccccc2)c(F)c1 [Compound 224, N^1-((3-(3-fluoro-4-phenoxyphenyl)-1H-pyrazol-4-yl)methyl)-N^1-methylethane-1,2-diamine]",–,< 100,< 3000
"CN(CCN)Cc1c[nH]nc1-c1ccc(Oc2ccc(F)cc2)cc1 [Compound 225, N^1-((3-(4-(4-fluorophenoxy)phenyl)-1H-pyrazol-4-yl)methyl)-N^1-methylethane-1,2-diamine]",< 3000,< 100,–
CN(CCN)Cc1c[nH]nc1-c1ccc(Oc2ccccc2)c(C(=O)N(C)C)c1 [Compound 226],> 12000,< 100,–
CNC(=O)c1cc(-c2n[nH]cc2CN(C)CCN)ccc1Oc1ccccc1 [Compound 227],> 12000,< 100,–
CNCCN(C)Cc1c[nH]nc1-c1ccc(OCCCOC)c(Cl)c1 [Compound 228],< 3000,< 100,–
"CNCCN(C)Cc1cn(C)nc1-c1ccc(OC(C)C)cc1 [Compound 243, N1-((3-(4-isopropoxyphenyl)-1-methyl-1H-pyrazol-4-yl)methyl)-N1,N2-dimethylethane-1,2-diamine]",< 3000,101 to 1000,–
CNCCN(C)Cc1cn(Cc2cccnc2)nc1-c1ccc(OC(C)C)cc1 [Compound 246],–,101 to 1000,< 3000
CNCCN(C)Cc1cn(Cc2ccccn2)nc1-c1ccc(OC(C)C)cc1 [Compound 247],3010 to 12000,101 to 1000,–
CNCCN(C)Cc1cn(CC(=O)OC)nc1-c1ccc(OC(C)C)cc1 [Compound 248],> 12000,101 to 1000,–
CNCCN(C)Cc1cnn(CC(=O)OC)c1-c1ccc(OC(C)C)cc1 [Compound 249],–,101 to 1000,3010 to 12000
